From EP0337167B1, “4-Aryl-4-piperidine (or pyrrolidine or hexahydroazepine) carbinols and heterocyclic analogs thereof” (THE DU PONT MERCK PHARMACEUTICAL COMPANY, priority 1988, dated 1989) come the findings set out here.

Where two headings read alike, the source gives them in different places.

In the experiment the test system is Male CF1 mice. Kind of experiment: Mouse antiphenylquinone writhing (PQW) test. Also noted: Mouse PQW ED50 (mg/kg): unit not given here. The conditions noted are these: for Mouse PQW ED50 (mg/kg): Table 4, 3° carbinols within the scope of U.S. 4,485,109, head prints neither endpoint nor unit; for ED50: Mus musculus, 0.5 h, phenylquinone 1.25 mg/kg i.p., observation beginning 30 min after injection of test compound; for ED50 / Mouse PQW remark: Table 3; for Mouse PQW remark: remark beside S.C and P.O values. Type of experiment: in vivo. As for the experimental part: The anti-pheylquinone writhing (PQW) test modified from the methods of Siegmund et al. (Proc. Soc. Exp. Biol. Med. 95: 729-731, 1957) and Blumberg et al. (Proc. Exp. Biol. Med. 118: 763-767, 1965) was used to assess analgesia in mice. Male CF1 mice (Charles River Breeding Laboratories, Wilmington, MA), fasted for 16-22 h and weighing 18-23 g, were injected with randomized and coded doses of test compounds, then challenged with 1.25 mg/kg i.p. phenyl-p-benzoquinone (phenylquinone) 5 min prior to the specified observation time. The phenylquinone solution (0.1 mg/ml in 5% aqueous ethanol) was prepared daily and stored in foil-wrapped amber bottles to limit degradation. Mice were observed 10 min for the presence or absence of the characteristic abdominal constriction and stretching response beginning 30 min after injection of the test compound. Analgetic activity was calculated as the percentage of mice failing to respond to the phenylquinone challenge dose. […] Median effective doses (ED50's) and 95% confidence limits were determined numerically by the methods of Thompson (Bacteriological Rev. 11: 115-145, 1947), and Litchfield and Wilcoxon (J. Pharmacol. Exp. Ther. 96: 99.113, 1949).
The data shown in Table show the PQW ED₅₀ values for the compounds of the aforesaid examples.
Table 4 illustrates that the 3° carbinols within the scope of U.S. 4,485,109 have utility as analgesic agents.

[1] abbreviates: po, p.o., read-out: Mouse PQW ED₅₀ (Mg/Kg) P.O.
[2] abbreviates: sc, s.c., read-out: Mouse PQW ED₅₀ (Mg/Kg) S.C.

Regarding `CN1CCC(c2cccc(O)c2)(C(C)(C)O)CC1` [AA], the “Mouse PQW ED50 (mg/kg)” value runs as follows: (p.o.) greater than 81.0; (s.c.) 62.0.
Take `COc1cccc(C2(C(C)(C)O)CCN(C)CC2)c1` [BB]: the “Mouse PQW ED50 (mg/kg)” value runs as follows: (p.o.) 19.0; (s.c.) 12.0.
On the same counts, the results for `CCC(C)(O)C1(c2cccc(OC)c2)CCN(C)CC1` (centres unmarked) [CC] are 68.0 and 23.0.
On to `CCC(O)(CC)C1(c2cccc(OC)c2)CCN(C)CC1` [DD], for which the “Mouse PQW ED50 (mg/kg)” value (p.o.) worked out at 12.0.
In the case of `COc1cccc(C2(C3(O)CCC3)CCN(C)CC2)c1` [EE], the “Mouse PQW ED50 (mg/kg)” value by setting is: (p.o.) greater than 54.0; (s.c.) 22.0.
As to `CN1CCC(c2cccc(Cl)c2)(C(C)(C)O)CC1` [Example 1a, 4-(3'-Chlorophenyl)-α,α,1-trimethyl-4-piperidinemethanol], the ED50 reads like this: under setting [1], 10 mg/kg; under setting [2], 16.1 mg/kg.
On the same counts, the results for `CCN1CCC(c2cccc(Cl)c2)(C(C)O)CC1` (stereo not drawn) [Example 2, 4-(3'-Chlorophenyl)-1-ethyl-α-methyl-4-piperidinemethanol] are greater than 81 mg/kg and 62 mg/kg.
Turning to `CC(O)C1(c2ccccc2F)CCN(C)CC1` (centres unmarked) [Example 4], the “Mouse PQW remark” value is “Inactive”. Further, the ED50 under setting [1] was greater than 81 mg/kg. Besides, under setting [2], the ED50 is greater than 81 mg/kg.
In the case of `CC(O)C1(c2cccc(F)c2)CCN(C)CC1` (centres unmarked) [Example 5], the ED50 was greater than 81 mg/kg under setting [1] and 24 mg/kg under setting [2].
`CC(O)C1(c2ccc(F)cc2)CCN(C)CC1` (centres unmarked) [Example 6]: the ED50 is greater than 81 mg/kg under setting [1] and 54 mg/kg under setting [2].
The matching figures for `CC(O)C1(c2ccc(F)c(F)c2)CCN(C)CC1` (centres unmarked) [Example 7]: greater than 81 mg/kg and 38 mg/kg.
The matching figures for `CC(O)C1(c2ccc(Cl)cc2)CCN(C)CC1` (centres unmarked) [Example 8]: greater than 81 mg/kg and 30 mg/kg.
The matching figures for `CC(O)C1(c2ccc(Cl)c(Cl)c2)CCN(C)CC1` (centres unmarked) [Example 9]: 32 mg/kg and greater than 81 mg/kg.
For `CC(O)C1(c2cccc(Br)c2)CCN(C)CC1` (stereo not drawn) [Example 10, 4-(3'-Bromophenyl)-α,1-dimethylpiperidinemethanol], the ED50 stood at 16 mg/kg under setting [1] and 6.5 mg/kg under setting [2].
Regarding `CC(O)C1(c2ccc(Br)cc2)CCN(C)CC1` (centres unmarked) [Example 11], the “Mouse PQW remark” value is “Inactive”. Also, the ED50 under setting [1] was greater than 81 mg/kg. In addition, the ED50 under setting [2] is greater than 81 mg/kg.
Regarding `Cc1cccc(C2(C(C)O)CCN(C)CC2)c1` (centres unmarked) [Example 13], the ED50 was found to be 47 mg/kg under setting [1] and 4.7 mg/kg under setting [2].
The matching figures for `Cc1ccc(C2(C(C)O)CCN(C)CC2)cc1` (centres unmarked) [Example 14]: greater than 81 mg/kg and 54 mg/kg.
As for `CC(O)C1(c2cccc(C(F)(F)F)c2)CCN(C)CC1` (centres unmarked) [Example 15], the ED50 was determined as 30 mg/kg under setting [1] and 19 mg/kg under setting [2].
As for `CC(O)C1(c2ccc3ccccc3c2)CCN(C)CC1` (centres unmarked) [Example 25], the ED50 reads like this: under setting [1], greater than 81 mg/kg; under setting [2], 16 mg/kg.
With `CC(O)C1(c2cccs2)CCN(C)CC1` (stereo not drawn) [Example 26, 4-(2-Thienyl)-α,1-dimethylpiperidinemethanol], the ED50 is 19 mg/kg under setting [1] and 13 mg/kg under setting [2].
The matching figures for `CC(O)C1(c2ccsc2)CCN(C)CC1` (stereo not drawn) [Example 27, 4-(3-Thienyl)-α,1-dimethylpiperidinemethanol]: 16 mg/kg and 13 mg/kg.
Take `CC(O)C1(c2csc3ccccc23)CCN(C)CC1` (centres unmarked) [Example 29]: the ED50 by setting is: under setting [1], 47 mg/kg; under setting [2], 6.8 mg/kg.
On the same counts, the results for `CCCN1CCC(c2cccc(Cl)c2)(C(C)O)CC1` (centres unmarked) [Example 34] are greater than 81 mg/kg and 38 mg/kg.
On the same counts, the results for `CCC(O)C1(c2cccc(Cl)c2)CCN(C)CC1` (centres unmarked) [Example 35] are 30 mg/kg and 16 mg/kg.
The matching figures for `CCCC(O)C1(c2cccc(Cl)c2)CCN(C)CC1` (centres unmarked) [Example 36]: greater than 81 mg/kg and 67 mg/kg.
As for `CCCCC(O)C1(c2cccc(Cl)c2)CCN(C)CC1` (centres unmarked) [Example 37], the ED50 is greater than 81 mg/kg under setting [1] and 48 mg/kg under setting [2].
On the same counts, the results for `CN1CCC(c2cccc(Br)c2)(C(C)(C)O)CC1` [Example 41, 4-(3'-Bromophenyl)-α,α,1-trimethyl-4-piperidinemethanol] are 24 mg/kg and 19 mg/kg.
The matching figures for `C=CCN1CCC(c2cccc(Cl)c2)(C(C)(C)O)CC1` [Example 42, 1-allyl,4-(3'-chlorophenyl)-α,α dimethyl-4-piperidinemethanol]: 54 mg/kg and 27 mg/kg.
On to `CN1CCC(c2cccs2)(C(C)(C)O)CC1` [Example 43], for which the ED50 by setting is: under setting [1], 36 mg/kg; under setting [2], 13 mg/kg.
Turning to `CN1CCC(c2ccsc2)(C(C)(C)O)CC1` [Example 44], the ED50 came out at 24 mg/kg under setting [1] and 6.5 mg/kg under setting [2].
The matching figures for `CN1CCC(c2csc3ccccc23)(C(C)(C)O)CC1` [Example 45]: 54 mg/kg and 4.2 mg/kg.
For the molecule `CN1CCC(c2ccccn2)(C(C)(C)O)CC1` [Example 46, reference compound], the “Mouse PQW remark” value was “Inactive”. The ED50 under setting [1] is greater than 81 mg/kg. Also, the ED50 under setting [2] is greater than 81 mg/kg.
Turning to `CN1CCC(c2cccc3ccccc23)(C(C)(C)O)CC1` [Example 50], the ED50 is, setting by setting: under setting [1], 67 mg/kg; under setting [2], 24 mg/kg.
On the same counts, the results for `CC(=O)OC(C)C1(c2cccc(Cl)c2)CCN(C)CC1` (stereo not drawn) [Example 66, 4-(3'-Chlorophenyl)-α,1-dimethyl-4-piperidinemethanol-Acetate] are 19 mg/kg and 13 mg/kg.
The matching figures for `CC(=O)OC(C)(C)C1(c2cccc(Cl)c2)CCN(C)CC1` [Example 67, 4-(3'-Chlorophenyl)-α,α,1-trimethyl-4-piperidinemethanol Acetate]: 5.2 mg/kg and 1.8 mg/kg.
On the same counts, the results for `COC(C)C1(c2cccc(Cl)c2)CCN(C)CC1` (centres unmarked) [Example 68] are 19 mg/kg and 6.5 mg/kg.
Consider `CC(OCc1ccccc1)C1(c2cccc(Cl)c2)CCN(C)CC1` (centres unmarked) [Example 69], for which the ED50 reads like this: under setting [1], greater than 81 mg/kg; under setting [2], 62 mg/kg.
In the case of `CN1CCC(c2cccc(Cl)c2)(C(C)(C)O)C1` (stereo not drawn) [Example 70, 3-(3'Chlorophenyl)-α,α,1-trimethyl-3-pyrrolidinemethanol], the ED50 runs as follows: under setting [1], 13 mg/kg; under setting [2], 10 mg/kg.
The matching figures for `CC(O)C1(c2cccc(Cl)c2)CCCN(C)CC1` (stereo not drawn) [Example 71, 4-(3'-Chlorophenyl)-α,1-dimethyl-2,3,4,5,6,7-hexahydro-1H-azepine-4-methanol]: 16 mg/kg and 8.1 mg/kg.
As for `COc1cccc(C2(C3(O)CCCC3)CCN(C)CC2)c1` [FF], the “Mouse PQW ED50 (mg/kg)” value runs as follows: (p.o.) 47.0; (s.c.) 16.0.
`COc1cccc(C2(C3(O)CCCCC3)CCN(C)CC2)c1` [GG]: where the note is “p.o.”, the “Mouse PQW ED50 (mg/kg)” value was less than 108.0.
Consider `CCOc1cccc(C2(C(C)(C)O)CCN(C)CC2)c1` [HH], for which the “Mouse PQW ED50 (mg/kg)” value is, setting by setting: (p.o.) 32.0; (s.c.) 9.0.
`CSc1ccc(C2(C(C)(C)O)CCN(C)CC2)cc1` [II]: the “Mouse PQW ED50 (mg/kg)” value (p.o.) is 59.0.
Take `CN1CCC(c2ccc3ccccc3c2)(C(C)(C)O)CC1` [KK]: the “Mouse PQW ED50 (mg/kg)” value was 47.0 (p.o.) and 27.0 (s.c.).
On the same counts, the results for `Cc1ccc(C2(C(C)(C)O)CCN(C)CC2)s1` [LL] are 36.0 and 9.0.
On the same counts, the results for `Cc1cc(C)cc(C2(C(C)(C)O)CCN(C)CC2)c1` [U] are 47.0 and 4.5.
With `CCC(C)(O)C1(c2cccc(C(F)(F)F)c2)CCN(C)CC1` (centres unmarked) [V], the “Mouse PQW ED50 (mg/kg)” value (p.o.) came to 23.0.
Regarding `CN1CCC(c2cccc(C(F)(F)F)c2)(C2(O)CCCC2)CC1` [W], the “Mouse PQW ED50 (mg/kg)” value amounted to 12.0 (p.o.) and 16.0 (s.c.).
The matching figures for `CN1CCC(c2cccc(F)c2)(C(C)(C)O)CC1` [X]: greater than 81.0 and 10.0.
Consider `CC1CCC(O)(C2(c3cccc(C(F)(F)F)c3)CCN(C)CC2)C1` (centres unmarked) [Y], for which the “Mouse PQW ED50 (mg/kg)” value (p.o.) worked out at 25.0.
